From US9822155B2 (priority 2013, dated 2017) come the findings set out here.

Converted amounts (≈) assume the structure as drawn. Like-named read-outs stand apart in the source and are kept apart here. Peptide text beside a SMILES is read from it.

For data set [1], the system named is H1N1 virus.
Data set [2] has as its system endosomal acidification.
Data set [3] can be described thus: in vitro. The settings on record: dog, MDCK cells.
For data set [4], the system named is MDCK cells.
Data set [5] relates to A/Hong Kong/415742Md/2009 (H1N1). Format: in vivo.
For data set [6], the system named is influenza A virus (H1N1). It counts as cell-based, influenza A virus A/Hong Kong/415742Md/2009 (H1N1).

For `CC[C@H](C)[C@H](NC(=O)[C@H](C)NC(=O)CNC(=O)[C@@H](N)CC(N)=O)C(=O)N[C@@H](CS)C(=O)N[C@@H](Cc1c[nH]c2ccccc12)C(=O)NCC(=O)N1CCC[C@H]1C(=O)N[C@@H](CS)C(=O)N1CCC[C@H]1C(=O)N[C@H](C(=O)N[C@@H](C)C(=O)N[C@@H](Cc1ccccc1)C(=O)N[C@@H](CCCNC(=N)N)C(=O)N[C@@H](CCC(N)=O)C(=O)N[C@H](C(=O)NCC(=O)N[C@@H](CC(N)=O)C(=O)N[C@@H](CS)C(=O)NCC(=O)N[C@@H](Cc1c[nH]cn1)C(=O)N[C@@H](Cc1ccccc1)C(=O)N[C@@H](CCCCN)C(=O)N[C@H](C(=O)N[C@@H](CCCNC(=N)N)C(=O)N[C@@H](CS)C(=O)N[C@@H](CS)C(=O)N[C@@H](CCCCN)C(=O)N[C@H](C(=O)N[C@@H](CCCNC(=N)N)C(=O)O)[C@@H](C)CC)C(C)C)[C@@H](C)CC)[C@@H](C)O` [Peptide P9] (H-NGAICWGPCPTAFRQIGNCGHFKVRCCKIR-OH), in data set [1], the “binding of P9 to cells” value is given as “no P9 (SEQ ID NO: 10) was detected on the cell membrane or inside the cells”, the “binding of P9 to virus particles” value is “bound to the green-labeled virus particles”, the “virus binding to the cell membrane” value is given as “could not block the virus binding to the cell membrane” and the “virus entry into cells by endocytosis” value is given as “did not affect the virus entry into cells by endocytosis”. Moreover, the “endosomal acidification (red fluorescence of pHrodo Red dextran)” value in data set [2] is “no red fluorescence in color image was observed”. Besides, in data set [3], the half-maximal cytotoxic concentration (CC50) – broadly, the concentration that lowers cell viability or growth by half – at 24 h came to 860 µg/mL (≈ 258 µM); the viability (usually a read-out of living cells in per cent, often relative to untreated cells) at 24 h, 7.8 µg/mL is 102%; the viability at 24 h, 15.6 µg/mL was 95.9%; the viability at 24 h, 31.25 µg/mL was 108%. Besides, in data set [3], the viability at 24 h, 62.5 µg/mL stood at 96%; the viability at 24 h, 125 µg/mL is 94.7%; the viability at 24 h, 250 µg/mL amounted to 95.3%; the viability at 24 h, 500 µg/mL came to 83.4%. Besides, in data set [3], the viability at 24 h, 750 µg/mL amounted to 59.8% and the viability at 24 h, 1000 µg/mL was 38.7%. Further, in data set [4], the “TC50 (50% toxic concentration)” value was determined as 860 µg/mL (≈ 258 µM). Besides, the “viral loads in lung tissues (RNA copies by RT-PCR, titers by plaque assay)” value in data set [5] (pretreated and i.n. or i.p. treated mice, day 5 after challenge, versus untreated) is listed as “significantly lower than those of the untreated mice”. Besides, the “alveolar damage and interstitial inflammatory infiltration in lung (H&E)” value in data set [5] (pretreated or treated mice versus rmBD4 and untreated mice) was “much less severe”. The survival rate in data set [5] (prophylactic, i.n. 50 μg/mouse before challenge with 5 LD50 H1N1, 9 mice/group, 21 days) came out at 100%. Also, the survival rate in data set [5] (therapeutic, i.n. 3 doses 50 μg/dose/day starting 4 hours after lethal challenge) is given as 67%. In data set [5] (therapeutic, i.p. 6 doses 200 μg/dose/day starting 4 hours post-challenge), this compound yielded a survival rate of 22%. The survival rate in data set [5] (therapeutic, i.p. 6 doses 400 μg/dose/day starting 4 hours post-challenge) amounted to 56%. Further, in data set [6], the “antiviral effect (infection ratio by plaque assay)” value is given as “highest antiviral effect” and the “antiviral effectiveness in low-salt PB compared with high-salt MEM” value is recorded as “more effective in low-salt phosphate buffer (PB) than in high-salt minimum essential medium (MEM)”.

`CC[C@H](C)[C@H](N)C(=O)N[C@H](C(=O)N[C@@H](CC(N)=O)C(=O)N[C@@H](CC(N)=O)C(=O)N1CCC[C@H]1C(=O)N[C@H](C(=O)N[C@H](C(=O)N[C@@H](CS)C(=O)N[C@@H](CCSC)C(=O)N[C@H](C(=O)N[C@@H](CC(N)=O)C(=O)NCC(=O)N[C@@H](C)C(=O)N[C@H](C(=O)N[C@@H](CS)C(=O)N[C@@H](Cc1c[nH]c2ccccc12)C(=O)NCC(=O)N1CCC[C@H]1C(=O)N[C@@H](CS)C(=O)N1CCC[C@H]1C(=O)N[C@H](C(=O)N[C@@H](C)C(=O)N[C@@H](Cc1ccccc1)C(=O)N[C@@H](CCCNC(=N)N)C(=O)N[C@@H](CCC(N)=O)C(=O)N[C@H](C(=O)NCC(=O)N[C@@H](CC(N)=O)C(=O)N[C@@H](CS)C(=O)NCC(=O)N[C@@H](Cc1c[nH]cn1)C(=O)N[C@@H](Cc1ccccc1)C(=O)N[C@@H](CCCCN)C(=O)N[C@H](C(=O)N[C@@H](CCCNC(=N)N)C(=O)N[C@@H](CS)C(=O)N[C@@H](CS)C(=O)N[C@@H](CCCCN)C(=O)N[C@H](C(=O)N[C@@H](CCCNC(=N)N)C(=O)O)[C@@H](C)CC)C(C)C)[C@@H](C)CC)[C@@H](C)O)[C@@H](C)CC)[C@@H](C)O)[C@@H](C)O)[C@@H](C)CC)[C@@H](C)CC` [smBD4, reference compound]: in data set [3], half-maximal cytotoxicity (CC50 at 24 h) was put at 94 µg/mL (≈ 21.2 µM); the viability at 24 h, 7.8 µg/mL was found to be 93.7%; the viability at 24 h, 15.6 µg/mL came to 85.3%; the viability at 24 h, 31.25 µg/mL came to 71.9%. Moreover, in data set [3], the viability at 24 h, 62.5 µg/mL was found to be 60%; the viability at 24 h, 125 µg/mL worked out at 45.5%; the viability at 24 h, 250 µg/mL amounted to 36.5%. Further, the “TC50 (50% toxic concentration)” value in data set [4] came to 94 µg/mL (≈ 21.2 µM). In addition, in data set [6], the “antiviral effectiveness in low-salt PB compared with high-salt MEM” value is on record as “more effective in low-salt phosphate buffer (PB) than in high-salt minimum essential medium (MEM)”.
